Data reported in patent US7709481B2, “Phenyl-1,2,4-oxadiazolone derivatives, processes for their preparation and methods for their use as pharmaceuticals” (Sanofi-Aventis, priority 2005, dated 2010).
Where two headings read alike, the source gives them in different places.

Columns and labels:
PPARdelta [1] = target: T1, PPARdelta (Mus musculus, UniProt P35396); conditions: diabetic animal model; cited from earlier work
T1 sequence (P35396 1-440): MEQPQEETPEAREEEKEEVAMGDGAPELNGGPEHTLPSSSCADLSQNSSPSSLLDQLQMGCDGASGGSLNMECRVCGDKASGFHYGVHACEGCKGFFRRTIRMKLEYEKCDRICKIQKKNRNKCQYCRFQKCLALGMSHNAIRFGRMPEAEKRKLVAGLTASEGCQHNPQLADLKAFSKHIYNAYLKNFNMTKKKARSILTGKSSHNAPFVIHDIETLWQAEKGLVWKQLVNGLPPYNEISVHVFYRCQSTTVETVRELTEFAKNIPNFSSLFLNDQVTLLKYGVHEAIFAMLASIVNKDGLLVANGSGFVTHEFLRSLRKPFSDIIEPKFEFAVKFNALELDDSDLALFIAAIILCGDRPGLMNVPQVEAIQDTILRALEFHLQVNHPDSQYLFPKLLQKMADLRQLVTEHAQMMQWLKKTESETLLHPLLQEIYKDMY

PPARdelta [2] = conditions: obese, insulin resistant rhesus monkeys; cited from earlier work
PPARdelta/PPARalpha [3] = conditions: rhesus and cynomolgus monkeys; cited from earlier work
PPARdelta/PPARalpha [4] = conditions: two weeks clinical trials in healthy volunteers; cited from earlier work
human PPARalpha = target: T2, human PPARalpha (Homo sapiens, UniProt Q07869); assay: Cellular PPARalpha assay (HEK PPARalpha reporter cell line, luciferase); type: cell-based; conditions: 24 h incubation
T2 construct: human PPARalpha receptor (amino acids S167-Y468); expressed in transfected cells; plasmid pcDNA3
T2 sequence (Q07869 167-468): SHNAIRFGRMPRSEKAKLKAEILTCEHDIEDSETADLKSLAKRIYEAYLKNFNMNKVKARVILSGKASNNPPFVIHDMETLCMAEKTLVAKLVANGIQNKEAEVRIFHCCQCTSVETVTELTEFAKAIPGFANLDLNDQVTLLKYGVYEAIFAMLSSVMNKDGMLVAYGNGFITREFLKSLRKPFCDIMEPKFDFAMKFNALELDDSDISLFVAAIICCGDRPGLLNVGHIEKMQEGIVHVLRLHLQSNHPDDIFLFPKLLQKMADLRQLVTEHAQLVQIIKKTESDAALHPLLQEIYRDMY
Method: The activity of the compounds was tested as follows. The potency of substances which bind to human PPARalpha and activate it in an agonistic manner is analyzed using a stably transfected HEK cell line (HEK=human embryo kidney) which is referred to here as PPARalpha reporter cell line. It contains two genetic elements, a luciferase reporter element (pdeltaM-GAL4-Luc-Zeo) and a PPARalpha fusion protein (GR-GAL4-humanPPARalpha-LBD) which mediates expression of the luciferase reporter element depending on a PPARalpha ligand. The stably and constitutively expressed fusion protein GR-GAL4-humanPPARalpha-LBD binds in the cell nucleus of the PPARalpha reporter cell line via the GAL4 protein portion to the GAL4 DNA binding motifs 5′-upstream of the luciferase reporter element which is stably integrated in the genome of the cell line. There is only weak expression of the luciferase reporter gene in the absence of a PPARalpha ligand if fatty acid-depleted fetal calf serum (cs-FCS) is used in the assay. PPARalpha ligands bind and activate the PPARalpha fusion protein and thereby stimulate the expression of the luciferase reporter gene. The luciferase which is formed can be detected by means of chemiluminescence via an appropriate substrate.
The PPARalpha reporter cell line was prepared in two stages. Firstly, the luciferase reporter element was constructed and stably transfected into HEK cells. For this purpose, five binding sites of the yeast transcription factor GAL4 (Accession # AF264724) were cloned in 5′-upstream of a 68 bp-long minimal MMTV promoter (Accession # V01175). The minimal MMTV promoter section contains a CCAAT box and a TATA element in order to enable efficient transcription by RNA polymerase II. The cloning and sequencing of the GAL4-MMTV construct took place in analogy to the description of Sambrook J. et. al. (Molecular cloning, Cold Spring Harbor Laboratory Press, 1989). Then the complete Photinus pyralis gene (Accession # M15077) was cloned in 3′-downstream of the GAL4-MMTV element. After sequencing, the luciferase reporter element consisting of five GAL4 binding sites, MMTV promoter and luciferase gene was recloned into a plasmid which confers zeocin resistance in order to obtain the plasmid pdeltaM-GAL4-Luc-Zeo. This vector was transfected into HEK cells in accordance with the statements in Ausubel, F. M. et al. (Current protocols in molecular biology, Vol. 1-3, John Wiley & Sons, Inc., 1995).
In a second step, the PPARalpha fusion protein (GR-GAL4-humanPPARalpha-LBD was introduced into the stable cell clone described. For this purpose, initially the cDNA coding for the N-terminal 76 amino acids of the glucocorticoid receptor (Accession # P04150) was linked to the cDNA section coding for amino acids 1-147 of the yeast transcription factor GAL4 (Accession # P04386). The cDNA of the ligand-binding domain of the human PPARalpha receptor (amino acids S167-Y468; Accession # S74349) was cloned in at the 3′-end of this GR-GAL4 construct. The fusion construct prepared in this way (GR-GAL4-humanPPARalpha-LBD) was recloned into the plasmid pcDNA3 (Invitrogen) in order to enable constitutive expression therein by the cytomegalovirus promoter. This plasmid was linearized with a restriction endonuclease and stably transfected into the previously described cell clone containing the luciferase reporter element. The finished PPARalpha reporter cell line which contains a luciferase reporter element and constitutively expresses the PPARalpha fusion protein (GR-GAL4-human PPARalpha-LBD) was isolated by selection with zeocin (0.5 mg/ml) and G418 (0.5 mg/ml).
The activity of PPARalpha agonists is determined in a 3-day assay which is described below: […]

human PPARdelta = target: T3, human PPARdelta (Homo sapiens, UniProt Q03181); assay: Cellular PPARdelta assay (HEK PPARdelta reporter cell line, luciferase); type: cell-based; conditions: 24 h incubation
T3 construct: human PPARdelta receptor (amino acids S139-Y441); expressed in transfected cells; plasmid pcDNA3
T3 sequence (Q03181 139-441): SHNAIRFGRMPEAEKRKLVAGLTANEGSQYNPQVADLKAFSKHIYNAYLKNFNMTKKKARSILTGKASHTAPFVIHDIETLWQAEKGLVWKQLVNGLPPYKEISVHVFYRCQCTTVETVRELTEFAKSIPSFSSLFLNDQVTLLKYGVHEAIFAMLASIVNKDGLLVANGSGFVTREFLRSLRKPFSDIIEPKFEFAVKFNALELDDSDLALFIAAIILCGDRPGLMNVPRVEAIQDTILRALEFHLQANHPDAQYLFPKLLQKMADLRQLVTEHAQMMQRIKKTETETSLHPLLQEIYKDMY
Method: The raw data from the luminometer are transferred into a Microsoft Excel file. Dose-effect plots and EC50 values of PPAR agonists are calculated using the XL.Fit program as specified by the manufacturer (IDBS). […] Compounds of the invention of the formula I activate the PPARalpha receptor. Determination of EC50 values of PPAR agonists in the cellular PPARdelta assay The potency of substances which bind to human PPARdelta and activate it in an agonistic manner is analyzed using a stably transfected HEK cell line (HEK=human embryo kidney) which is referred to here as PPARdelta reporter cell line. In analogy to the assay described for PPARalpha, the PPARdelta reporter cell line also contains two genetic elements, a luciferase reporter element (pdeltaM-GAL4-Luc-Zeo) and a PPARdelta fusion protein (GR-GAL4-humanPPARdelta-LBD) which mediates expression of the luciferase reporter element depending on a PPARdelta ligand. The stably and constitutively expressed fusion protein GR-GAL4-humanPPARdelta-LBD binds in the cell nucleus of the PPARdelta reporter cell line via the GAL4 protein portion to the GAL4 DNA binding motifs 5′-upstream of the luciferase reporter element which is stably integrated in the genome of the cell line. There is only little expression of the luciferase reporter gene in the absence of a PPARdelta ligand if fatty acid-depleted fetal calf serum (cs-FCS) is used in the assay. PPARdelta ligands bind and activate the PPARdelta fusion protein and thereby stimulate expression of the luciferase reporter gene. The luciferase which is formed can be detected by means of chemiluminescence via an appropriate substrate.
The production of the stable PPARdelta reporter cell line is based on a stable HEK-cell clone which was stably transfected with a luciferase reporter element. This step was already described above in the section “construction of the PPARalpha reporter cell line”. In a second step, the PPARdelta fusion protein (GR-GAL4-humanPPARdelta-LBD was stably introduced into this cell clone. For this purpose, the cDNA coding for the N-terminal 76 amino acids of the glucocorticoid receptor (Accession # P04150) was linked to the cDNA section coding for amino acids 1-147 of the yeast transcription factor GAL4 (Accession # P04386). The cDNA of the ligand-binding domain of the human PPARdelta receptor (amino acids S139-Y441; Accession # L07592) was cloned in at the 3′-end of this GR-GAL4 construct. The fusion construct prepared in this way (GR-GAL4-humanPPARdelta-LBD) was recloned into the plasmid pcDNA3 (Invitrogen) in order to enable constitutive expression by the cytomegalovirus promoter. This plasmid was linearized with a restriction endonuclease and stably transfected into the previously described cell clone containing the luciferase reporter element. The resulting PPARdelta reporter cell line which contains a luciferase reporter element and constitutively expresses the PPARdelta fusion protein (GR-GAL4-human PPARdelta-LBD) was isolated by selection with zeocin (0.5 mg/ml) and G418 (0.5 mg/ml).
The activity of PPARdelta agonists is determined in a 3-day assay in exact analogy to the procedure already described for the PPARalpha reporter cell line except that the PPARdelta reporter cell line and a specific PPARdelta agonist was used as a standard to control test efficacy. PPARdelta EC50 values in the range from 0.3 nM to >10 μM were measured for the PPAR agonists of Examples 1 to 69 described in this application. Compounds of the invention of the formula I activate the PPARdelta receptor.

Structure (SMILES) | EC50 (human PPARalpha) [nM] | EC50 (human PPARdelta) [nM] | also measured
CCCc1c(OCCCOc2ccc(OCC(=O)O)cc2)ccc(C(C)=O)c1O [Example L-165041] | – | – | plasma cholesterol (PPARdelta [1]): raises plasma cholesterol
Cc1cc(SCc2sc(-c3ccc(C(F)(F)F)cc3)nc2C)ccc1OCC(=O)O [GW501516] | – | – | HDL-cholesterol (PPARdelta [2]): raises HDL-cholesterol; plasma LDL-cholesterol, triglycerides and insulin levels (PPARdelta [2]): decreases plasma LDL-cholesterol, triglycerides and insulin levels
CCCc1c(OCCCSc2nnc(SCC(=O)O)s2)ccc(C(C)=O)c1O [YM-16638] | – | – | plasma lipids (PPARdelta/PPARalpha [3]): significantly lowers plasma lipids; plasma lipids (PPARdelta/PPARalpha [4]): acts in a similar manner
Cc1nc(C2CCCCC2)sc1COc1ccc(-c2noc(=O)[nH]2)c(Cl)c1 [Example 5, 3-[2-Chloro-4-(2-cyclohexyl-4-methyl-thiazol-5-ylmethoxy)-phenyl]-4H-[1,2,4]oxadiazol-5-one] | 1260 | 230 | –
CCC(Oc1ccc(-c2noc(=O)[nH]2)c(OC(F)F)c1)c1sc([C@H]2CC[C@H](C(F)(F)F)CC2)nc1CN1CCC(C(F)(F)F)CC1 (stereo partly drawn) [Example 61, 3-(2-Difluoromethoxy-4-{1-[2-(trans-1,4-trifluoromethyl-cyclohexyl)-4-(4-trifluoromethyl-piperidin-1-ylmethyl)-thiazol-5-yl]-propoxy}-phenyl)-4H-1,2,4-oxadiazol-5-one] | > 33000 | 7 | –
Cc1nc(-c2ccc(C(F)(F)F)nc2)sc1C(OCc1ccc(-c2noc(=O)[nH]2)c(F)c1)C(F)(F)F (centres unmarked) [Example 31, 3-(2-Fluoro-4-{2,2,2-trifluoro-1-[4-methyl-2-(6-trifluoromethyl-pyridin-3-yl)-thiazol-5-yl]-ethoxymethyl}-phenyl)-4H-[1,2,4]oxadiazol-5-one] | > 33000 | 14 | –
